Experimental data reported in patent US8415272B2, “Quinoline derivatives and their use as fungicides” (Syngenta Crop Protection LLC, priority 2008, dated 2013).

Key:
Plasmopara viticola = test: Leaf disk assay, Plasmopara viticola (downy mildew of grapevine), preventive; type: in vivo; settings: foliar, 168 h, grapevine leaf disks, assessed seven days after inoculation, read-out: control of fungal infection, Plasmopara viticola
Fusarium culmorum = test: Growth inhibition in nutrient broth, Fusarium culmorum (root rot), photometric; type: cell-based; settings: 48 h, read-out: control of fungal infection, Fusarium culmorum
Protocol: The compounds were tested in a leaf disk assay, with methods described below. The test compounds were dissolved in DMSO and diluted into water to 200 ppm. In the case of the test on Pythium ultimum, they were dissolved in DMSO and diluted into water to 20 ppm.
Fusarium culmorum (root rot): Conidia of the fungus from cryogenic storage were directly mixed into nutrient broth (PDB potato dextrose broth). After placing a (DMSO) solution of the test compounds into a microtiter plate (96-well format) the nutrient broth containing the fungal spores was added. The test plates were incubated at 24 C and the inhibition of growth was determined photometrically after 48 hrs.

Phytophthora infestans = test: whole plant or invertebrate; type: in vivo; settings: in Solanum lycopersicum, foliar, 96 h, read-out: control of fungal infection, Phytophthora infestans
[1] = test system: Erysiphe graminis f.sp. tritici; test: Leaf disk assay, Erysiphe graminis f.sp. tritici (wheat powdery mildew), preventive; type: in vivo; settings: Blumeria graminis, foliar, 96 h, wheat leaf segments, assessed four days after inoculation, read-out: control of fungal infection, Erysiphe graminis f.sp. tritici
Protocol: The compounds were tested in a leaf disk assay, with methods described below. The test compounds were dissolved in DMSO and diluted into water to 200 ppm. In the case of the test on Pythium ultimum, they were dissolved in DMSO and diluted into water to 20 […] graminis f.sp. tritici (wheat powdery mildew): Wheat leaf segments were placed on agar in a 24-well plate and sprayed with a solution of the test compound. After allowing to dry completely, for between 12 and 24 hours, the leaf disks were inoculated with a spore suspension of the fungus. After appropriate incubation the activity of a compound was assessed four days after inoculation as preventive fungicidal activity.

[2] = test system: Puccinia recondita f.sp. tritici; test: Leaf disk assay, Puccinia recondita f.sp. tritici (wheat brown rust), preventive; type: in vivo; settings: foliar, 216 h, wheat leaf segments, assessed nine days after inoculation, read-out: control of fungal infection, Puccinia recondita f.sp. tritici
Pythium ultimum = test: Growth inhibition in potato dextrose broth, Pythium ultimum (damping off), photometric; type: cell-based; settings: Globisporangium ultimum, 24° C., 48 hours, read-out: control of fungal infection, Pythium ultimum
Protocol: The compounds were tested in a leaf disk assay, with methods described below. The test compounds were dissolved in DMSO and diluted into water to 200 ppm. In the case of the test on Pythium ultimum, they were dissolved in DMSO and diluted into water to 20 ppm. Pythium ultimum (Damping off): Mycelial fragments of the fungus, prepared from a fresh liquid culture, were mixed into potato dextrose broth. A solution of the test compound in dimethyl sulphoxide was diluted with water to 20 ppm then placed into a 96-well microtiter plate and the nutrient broth containing the fungal spores was added. The test plate was incubated at 24° C. and the inhibition of growth was determined photometrically after 48 hours.

Septoria tritici = test: Growth inhibition in nutrient broth, Septoria tritici (leaf blotch), photometric; type: cell-based; settings: Zymoseptoria tritici, PDB broth, 24 C, 72 hrs, read-out: control of fungal infection, Septoria tritici
Septoria nodorum = test: Leaf disk assay, Septoria nodorum (wheat glume blotch), preventive; type: in vivo; settings: Parastagonospora nodorum, foliar, 96 h, wheat leaf segments, assessed four days after inoculation, read-out: control of fungal infection, Septoria nodorum

COCC#Cc1cnc2ccc(OC(SC)C(=O)NC(C)(C)C)cc2c1 (stereo not drawn) [Example 42]
≥ 60%: pest or weed control at 200 ppm (Plasmopara viticola) | inhibition of growth at 60 ppm (Fusarium culmorum) | pest or weed control at 200 ppm (Phytophthora infestans) | pest or weed control at 200 ppm [1] | pest or weed control at 200 ppm [2] | inhibition of growth at 20 ppm (Pythium ultimum) | inhibition of growth at 60 ppm (Septoria tritici)

CC#Cc1cnc2ccc(OC(SC)C(=O)NC(C)(C)C)cc2c1 (stereo not drawn) [Example 54]
≥ 60%: pest or weed control at 200 ppm (Plasmopara viticola) | inhibition of growth at 60 ppm (Fusarium culmorum) | pest or weed control at 200 ppm (Phytophthora infestans) | pest or weed control at 200 ppm (Septoria nodorum) | pest or weed control at 200 ppm [1] | inhibition of growth at 20 ppm (Pythium ultimum) | inhibition of growth at 60 ppm (Septoria tritici)

C#CC(C)(C)NC(=O)C(Oc1ccc2ncc(C#CC)cc2c1)SC (stereo not drawn) [Example 57]
≥ 60%: pest or weed control at 200 ppm (Plasmopara viticola) | inhibition of growth at 60 ppm (Fusarium culmorum) | pest or weed control at 200 ppm (Phytophthora infestans) | pest or weed control at 200 ppm (Septoria nodorum) | inhibition of growth at 60 ppm (Septoria tritici)

C#Cc1cnc2ccc(OC(SC)C(=O)NC(C)(C)C=O)cc2c1 (stereo not drawn) [Example 61]
≥ 60%: pest or weed control at 200 ppm (Plasmopara viticola) | inhibition of growth at 60 ppm (Fusarium culmorum) | pest or weed control at 200 ppm (Phytophthora infestans) | pest or weed control at 200 ppm [1] | pest or weed control at 200 ppm [2] | inhibition of growth at 20 ppm (Pythium ultimum) | inhibition of growth at 60 ppm (Septoria tritici)

CSC(Oc1ccc2ncc(C#CBr)cc2c1)C(=O)NC(C)(C)C (stereo not drawn) [Example 69]
≥ 60%: pest or weed control at 200 ppm (Plasmopara viticola) | inhibition of growth at 60 ppm (Fusarium culmorum) | pest or weed control at 200 ppm (Phytophthora infestans) | inhibition of growth at 20 ppm (Pythium ultimum) | inhibition of growth at 60 ppm (Septoria tritici)

C#Cc1cnc2ccc(OC(OC)C(=O)NC(C)(C)C)cc2c1 (stereo not drawn) [Example 87]
≥ 60%: pest or weed control at 200 ppm (Plasmopara viticola) | inhibition of growth at 60 ppm (Fusarium culmorum) | pest or weed control at 200 ppm (Phytophthora infestans) | pest or weed control at 200 ppm (Septoria nodorum) | pest or weed control at 200 ppm [1] | pest or weed control at 200 ppm [2] | inhibition of growth at 60 ppm (Septoria tritici)

C#Cc1cnc2ccc(OC(SC)C(=O)NCC)cc2c1 (stereo not drawn) [Example 97]
≥ 60%: pest or weed control at 200 ppm (Plasmopara viticola) | inhibition of growth at 60 ppm (Fusarium culmorum) | pest or weed control at 200 ppm (Phytophthora infestans) | pest or weed control at 200 ppm (Septoria nodorum) | pest or weed control at 200 ppm [1] | pest or weed control at 200 ppm [2] | inhibition of growth at 20 ppm (Pythium ultimum) | inhibition of growth at 60 ppm (Septoria tritici)

C#Cc1cnc2ccc(OC(SC)C(=O)NC(C)C)cc2c1 (stereo not drawn) [Example 98]
≥ 60%: pest or weed control at 200 ppm (Plasmopara viticola) | inhibition of growth at 60 ppm (Fusarium culmorum) | pest or weed control at 200 ppm (Phytophthora infestans) | pest or weed control at 200 ppm (Septoria nodorum) | pest or weed control at 200 ppm [1] | pest or weed control at 200 ppm [2] | inhibition of growth at 20 ppm (Pythium ultimum) | inhibition of growth at 60 ppm (Septoria tritici)

C#Cc1cnc2cc(F)c(OC(SC)C(=O)NC(C)(C)C#CC)cc2c1 (stereo not drawn) [Example 107]
≥ 60%: pest or weed control at 200 ppm (Plasmopara viticola) | inhibition of growth at 60 ppm (Fusarium culmorum) | pest or weed control at 200 ppm (Phytophthora infestans) | pest or weed control at 200 ppm (Septoria nodorum) | pest or weed control at 200 ppm [1] | pest or weed control at 200 ppm [2] | inhibition of growth at 60 ppm (Septoria tritici)

C#Cc1cnc2ccc(OC(CC)C(=O)NC(C)(C)CO)cc2c1 (stereo not drawn) [Example 110]
≥ 60%: inhibition of growth at 60 ppm (Fusarium culmorum) | pest or weed control at 200 ppm (Phytophthora infestans) | pest or weed control at 200 ppm (Septoria nodorum) | pest or weed control at 200 ppm [1] | inhibition of growth at 20 ppm (Pythium ultimum) | inhibition of growth at 60 ppm (Septoria tritici)

C#Cc1cnc2c(C)cc(OC(CC)C(=O)NC(C)(C)CO)cc2c1 (stereo not drawn) [Example 111]
≥ 60%: pest or weed control at 200 ppm (Plasmopara viticola) | inhibition of growth at 60 ppm (Fusarium culmorum) | pest or weed control at 200 ppm (Phytophthora infestans) | pest or weed control at 200 ppm (Septoria nodorum) | pest or weed control at 200 ppm [1] | inhibition of growth at 20 ppm (Pythium ultimum) | inhibition of growth at 60 ppm (Septoria tritici)

C#Cc1cnc2ccc(OC(OC)C(=O)NC(C)(C)C#C)cc2c1 (stereo not drawn) [Example 124]
≥ 60%: pest or weed control at 200 ppm (Plasmopara viticola) | inhibition of growth at 60 ppm (Fusarium culmorum) | pest or weed control at 200 ppm (Phytophthora infestans) | pest or weed control at 200 ppm (Septoria nodorum) | pest or weed control at 200 ppm [1] | inhibition of growth at 20 ppm (Pythium ultimum) | inhibition of growth at 60 ppm (Septoria tritici)

C#Cc1cnc2ccc(OC(OC)C(=O)NC(C)(C)C#CCOC)cc2c1 (stereo not drawn) [Example 125]
≥ 60%: pest or weed control at 200 ppm (Plasmopara viticola) | inhibition of growth at 60 ppm (Fusarium culmorum) | pest or weed control at 200 ppm (Phytophthora infestans) | pest or weed control at 200 ppm [1] | inhibition of growth at 20 ppm (Pythium ultimum) | inhibition of growth at 60 ppm (Septoria tritici)

C#CCOCC(C)(C)NC(=O)C(OC)Oc1ccc2ncc(C#C)cc2c1 (stereo not drawn) [Example 127]
≥ 60%: pest or weed control at 200 ppm (Plasmopara viticola) | inhibition of growth at 60 ppm (Fusarium culmorum) | pest or weed control at 200 ppm (Phytophthora infestans) | pest or weed control at 200 ppm (Septoria nodorum) | pest or weed control at 200 ppm [1] | pest or weed control at 200 ppm [2] | inhibition of growth at 20 ppm (Pythium ultimum) | inhibition of growth at 60 ppm (Septoria tritici)

CSC(Oc1ccc2ncc(C#CCCl)cc2c1)C(=O)NC(C)(C)C (stereo not drawn) [Example 143]
≥ 60%: inhibition of growth at 60 ppm (Fusarium culmorum) | pest or weed control at 200 ppm (Septoria nodorum) | pest or weed control at 200 ppm [2] | inhibition of growth at 20 ppm (Pythium ultimum) | inhibition of growth at 60 ppm (Septoria tritici)

C#Cc1cnc2ccc(OC(SC)C(=O)NC(C)(C#C)C#C)cc2c1 (stereo not drawn) [Example 159]
≥ 60%: pest or weed control at 200 ppm (Plasmopara viticola) | inhibition of growth at 60 ppm (Fusarium culmorum) | pest or weed control at 200 ppm (Phytophthora infestans) | pest or weed control at 200 ppm (Septoria nodorum) | pest or weed control at 200 ppm [1] | pest or weed control at 200 ppm [2] | inhibition of growth at 20 ppm (Pythium ultimum) | inhibition of growth at 60 ppm (Septoria tritici)

C#Cc1cnc2cc(F)c(OC(SC)C(=O)NC(C)C)cc2c1 (stereo not drawn) [Example 181]
≥ 60%: pest or weed control at 200 ppm (Plasmopara viticola) | inhibition of growth at 60 ppm (Fusarium culmorum) | pest or weed control at 200 ppm (Phytophthora infestans) | pest or weed control at 200 ppm (Septoria nodorum) | pest or weed control at 200 ppm [1] | pest or weed control at 200 ppm [2] | inhibition of growth at 20 ppm (Pythium ultimum) | inhibition of growth at 60 ppm (Septoria tritici)

C#CCC(C)(C)NC(=O)C(Oc1cc2cc(C#C)cnc2cc1F)SC (stereo not drawn) [Example 187]
≥ 60%: pest or weed control at 200 ppm (Plasmopara viticola) | inhibition of growth at 60 ppm (Fusarium culmorum) | pest or weed control at 200 ppm (Phytophthora infestans) | pest or weed control at 200 ppm (Septoria nodorum) | pest or weed control at 200 ppm [1] | pest or weed control at 200 ppm [2] | inhibition of growth at 20 ppm (Pythium ultimum) | inhibition of growth at 60 ppm (Septoria tritici)

C#Cc1cnc2cc(F)c(OC(SC)C(=O)NC(C)(C#C)CC)cc2c1 (stereo not drawn) [Example 188]
≥ 60%: pest or weed control at 200 ppm (Plasmopara viticola) | inhibition of growth at 60 ppm (Fusarium culmorum) | pest or weed control at 200 ppm (Phytophthora infestans) | pest or weed control at 200 ppm (Septoria nodorum) | pest or weed control at 200 ppm [1] | pest or weed control at 200 ppm [2] | inhibition of growth at 20 ppm (Pythium ultimum) | inhibition of growth at 60 ppm (Septoria tritici)

C#Cc1cnc2ccc(OC(SC)C(=O)NCC#N)cc2c1 (stereo not drawn) [Example 196]
≥ 60%: pest or weed control at 200 ppm (Plasmopara viticola) | inhibition of growth at 60 ppm (Fusarium culmorum) | pest or weed control at 200 ppm (Phytophthora infestans) | pest or weed control at 200 ppm (Septoria nodorum) | pest or weed control at 200 ppm [1] | inhibition of growth at 20 ppm (Pythium ultimum) | inhibition of growth at 60 ppm (Septoria tritici)

C#Cc1cnc2ccc(OC(SC)C(=O)NC(C)(C)CC#N)cc2c1 (stereo not drawn) [Example 197]
≥ 60%: pest or weed control at 200 ppm (Plasmopara viticola) | inhibition of growth at 60 ppm (Fusarium culmorum) | pest or weed control at 200 ppm (Phytophthora infestans) | inhibition of growth at 20 ppm (Pythium ultimum)

C#Cc1cnc2c(F)cc(OC(SC)C(=O)NC(C)(C)C)cc2c1 (stereo not drawn) [Example 201]
≥ 60%: pest or weed control at 200 ppm (Plasmopara viticola) | inhibition of growth at 60 ppm (Fusarium culmorum) | pest or weed control at 200 ppm (Phytophthora infestans) | pest or weed control at 200 ppm (Septoria nodorum) | pest or weed control at 200 ppm [1] | inhibition of growth at 20 ppm (Pythium ultimum) | inhibition of growth at 60 ppm (Septoria tritici)

C#Cc1cnc2ccc(OC(SC)C(=O)NC(C)(C#C)CC)cc2c1 (stereo not drawn) [Example 205]
≥ 60%: pest or weed control at 200 ppm (Plasmopara viticola) | inhibition of growth at 60 ppm (Fusarium culmorum) | pest or weed control at 200 ppm (Phytophthora infestans) | pest or weed control at 200 ppm [1] | inhibition of growth at 20 ppm (Pythium ultimum)

C#Cc1cnc2ccc(OC(SC)C(=O)NC(C#C)(CC)CC)cc2c1 (stereo not drawn) [Example 207]
≥ 60%: pest or weed control at 200 ppm (Plasmopara viticola) | inhibition of growth at 60 ppm (Fusarium culmorum) | pest or weed control at 200 ppm (Phytophthora infestans) | pest or weed control at 200 ppm [1] | pest or weed control at 200 ppm [2] | inhibition of growth at 20 ppm (Pythium ultimum)

C#Cc1cnc2cc(F)c(OC(SC)C(=O)NC(C)(C=O)COC)cc2c1 (stereo not drawn) [Example 210]
≥ 60%: pest or weed control at 200 ppm (Plasmopara viticola) | inhibition of growth at 60 ppm (Fusarium culmorum) | pest or weed control at 200 ppm (Septoria nodorum) | pest or weed control at 200 ppm [1] | pest or weed control at 200 ppm [2] | inhibition of growth at 20 ppm (Pythium ultimum) | inhibition of growth at 60 ppm (Septoria tritici)
